Assays:
[1] = Isothermal titration calorimetry of octanoic acid with cyclodextrin; type: binding; details: 1:1 complex, DPBS
Protocol: The binding energy between octanoic acid and -cyclodextrin (-CD) was determined by isothermal titration calorimetry. Briefly, solutions used of […]-CD and 0.2 M octanoic acid were made in DPBS. Ten injections of […] each of the octanoic acid solution were made into 1.37 ml of the cyclodextrin in a Microcal ITC unit. A 1:1 complex is formed with an equilibrium constant of 1900.

[2] = Levofloxacin stability on formulation at elevated temperature / autoclaving; type: physicochemical; details: HPLC, solution equilibrated at 60° C.
From the text: Wet-spinning fibers from a solution of levofloxacin and PLGA results in a product that is porous with a rough surface (on the sub-micron length scale). The internal morphology of the fiber is consistent with fiber prepared in previous work via wet-spinning. (See, e.g., Gao, H., et al., Journal of Controlled Release 2007; 118(3):325-332, the disclosure of which is incorporated herein by reference.) The protuberances on the surface of the fiber are likely the result of the drug forming aggregates on the surface, and/or by the drug distorting the polymer matrix at the surface. Fiber B has larger more discrete protuberances relative to fibers A and C. This may be due to fiber B having suspended particles of drug present in the polymer solution before wet spinning. […] Fiber C was manufactured at an elevated temperature to absolutely assure total drug dissolution in the polymer/DMSO solution. […] (See e.g., Fujimoto, K., et al., Jpn J Pharmacol 1995; 69(4):443-445, the disclosure of which is incorporated herein by reference.)

| SMILES | equilibrium constant [1] | stability after formulation at higher temperatures [2] |
| --- | --- | --- |
| CCCCCCCC(=O)O [octanoic acid] | 1900 | – |
| C[C@H]1COc2c(N3CCN(C)CC3)c(F)cc3c(=O)c(C(=O)O)cn1c23 [Levofloxacin, levofloxacin] | – | no other peaks were observed in the HPLC chromatogram |

From patent US8974814B2, “Layered drug delivery polymer monofilament fibers” (California Institute of Technology, priority 2007, dated 2015)
